pIC50: −log10 of the molar value. Where a name gives a salt, the structure may show the parent alone.
What was measured:
[1] = biological target: T1, Na^+ /H^+ exchanger of rabbit erythrocytes (Oryctolagus cuniculus, UniProt P23791); assay: Inhibition of the Na^+ /H^+ exchanger of rabbit erythrocytes (amiloride-sensitive sodium influx, flame photometry); assay type: cell-based; settings: pH 7.4, 37° C., cholesterol-fed White New Zealand rabbits
T1 construct: from tissue; host or cells: rabbit blood (erythrocytes), White New Zealand rabbits
T1 sequence (P23791 whole entry): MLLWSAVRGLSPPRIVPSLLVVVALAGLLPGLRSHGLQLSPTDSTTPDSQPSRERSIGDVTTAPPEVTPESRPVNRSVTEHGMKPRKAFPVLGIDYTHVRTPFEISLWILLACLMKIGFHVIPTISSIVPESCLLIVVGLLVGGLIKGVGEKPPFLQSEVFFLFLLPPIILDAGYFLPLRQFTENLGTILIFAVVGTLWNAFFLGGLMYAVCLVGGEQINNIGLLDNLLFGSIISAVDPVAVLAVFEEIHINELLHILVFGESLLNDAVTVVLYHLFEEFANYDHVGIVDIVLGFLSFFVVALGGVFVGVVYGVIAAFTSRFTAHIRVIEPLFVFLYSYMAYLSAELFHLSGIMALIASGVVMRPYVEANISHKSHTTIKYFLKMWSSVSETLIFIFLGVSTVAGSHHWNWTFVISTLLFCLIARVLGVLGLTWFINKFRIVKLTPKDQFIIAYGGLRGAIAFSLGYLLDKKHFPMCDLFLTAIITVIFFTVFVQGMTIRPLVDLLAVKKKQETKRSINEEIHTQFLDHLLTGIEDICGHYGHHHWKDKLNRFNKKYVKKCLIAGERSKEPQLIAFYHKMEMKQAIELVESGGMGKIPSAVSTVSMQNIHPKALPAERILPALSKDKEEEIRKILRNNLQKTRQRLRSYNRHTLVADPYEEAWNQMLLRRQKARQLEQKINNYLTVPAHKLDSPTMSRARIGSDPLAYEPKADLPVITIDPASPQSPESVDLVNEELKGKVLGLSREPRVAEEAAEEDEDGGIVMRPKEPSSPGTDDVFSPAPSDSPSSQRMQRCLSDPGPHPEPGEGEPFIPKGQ
Description: Inhibition of the Na^+ /H^+ exchanger of rabbit erythrocytes:
White New Zealand rabbits (Ivanovas) received a standard diet containing 2% cholesterol for six weeks in order to activate Na^+ /H^+ exchange and thus to be able to determine the Na^+ influx into the erythrocytes via Na^+ /H^+ exchange by flame photometry. The blood was taken from the ear arteries and anticoagulated by 25 IU/ml potassium heparin. A portion of each sample was used for duplicate determination of the hematocrit by centrifugation. Aliquots each of 100 μl were used to measure the initial Na^+ content of the erythrocytes.
In order to determine the amiloride-sensitive sodium influx, 100 μl of each blood sample were incubated in each case in 5 ml of a hyperosmolar salt/sucrose medium (mmol/l: 140 NaCl, 3 KCl, 150 sucrose, 0.1 ouabain, 20 tris-hydroxymethylaminomethane) at pH 7.4 and 37° C. The erythrocytes were then washed three times with ice-cold MgCl2 /ouabain solution (mmol/l: 112 MgCl2, 0.1 ouabain) and hemolyzed in 2.0 ml of distilled water. The intracellular sodium content was determined by flame photometry.
The net Na^+ influx was calculated from the difference between the initial sodium levels and the sodium content of the erythrocytes after incubation. The sodium influx which can be inhibited by amiloride was found from the difference in the sodium content of the erythrocytes after incubation with and without amiloride 3×10^-4 mol/l. The compounds according to the invention were also subjected to this process.

rat hearts = settings: isolated rat hearts; Eur. Heart J. 9 (suppl. 1): 167 (1988); cited from earlier work
[2] = system: cardiac rhythm disturbances; settings: cited from earlier work

pIC50 [1] | Structure (SMILES) | suppression of artificially induced ventricular fibrillation (rat hearts) | antiarrhythmic effect ([2]; Circulation 79, 1257-63 (1989)) | accompanying side effects ([2]; in vivo)
> 6.00 | NC(N)=NC(=O)C=Cc1cccc(C(F)(F)F)c1 [Example 1, Meta-Trifluoromethylcinnamic Acid Guanidide Hydrochloride] | – | – | –
> 6.00 | C/C(=C\c1cccc(C(F)(F)F)c1)C(=O)N=C(N)N [Example 3, Trans-2-Methyl-3-(3-Trifluoromethylphenyl)-Acrylic Acid Guanidide] | – | – | –
> 6.00 | C/C(C(=O)N=C(N)N)=C(/C)c1cc(C(F)(F)F)ccc1F [Example 10, Trans-2,3-Dimethyl-3-[2-Fluoro-5-Trifluoromethyl-Phenyl]-Acrylic Acid Guanidide] | – | – | –
– | N=C(N)NC(=O)c1nc(Cl)c(N)nc1N [amiloride] | completely to suppress artificially induced ventricular fibrillation | only weak | blood pressure-lowering and saluretic effect
– | CCN(c1nc(N)c(C(=O)NC(=N)N)nc1Cl)C(C)C [ethylisopropylamiloride] | Even more potent than amiloride | – | –

— patent US6025349A, “Phenyl.-substituted alkenylcarboguanidides carrying perfluoroalkyl groups, a process for their preparation, their use as a medicament or diagnostic agent, and also a medicament containing them” (priority 1994, dated 2000)
